Patent US12454506B2, “Benzoate derivatives” (ZHEJIANG YUEJIA PHARMACEUTICALS CO., LTD, priority 2022, dated 2025)

Assays:
[1] = test system: inflammatory factor MCP-1 mRNA in H9c2 cells; assay: TNF-α-induced H9c2 cell inflammation model, MCP-1 mRNA by RT-PCR; format: cell-based, rat; settings: 2 h pre-incubation, 10 ng/mL TNF-α for 1 h, compounds A and C 5/1/0.2 mM, compound B 3/1/0.2 mM, FIG. 8
Protocol: The pH value was adjusted to 7.2 with 1 M HCl, and ultrapure water was used to reach the constant volume of 1 L. Finally, the medium was filtered into a sterile container by membrane filtration using a 0.22 m constant-volume filter. (After filtration, the pH value might rise by 0.1 to 0.3 units) • 1.3 Formulation of positive control drug: a dexamethasone solution: […] of dexamethasone was added to 5 mL of DMSO and shaken for dissolution. 1000×solution (10 mM) was obtained. The solution was aliquoted and stored in a refrigerator at −20° C. • 1.4 Formulation of test sample solution: […]
Compound A/compound B/compound C: the test sample was weighed at an appropriate mass and dissolved in DMSO to formulate a solution with a final concentration of 1 M, and the solution was aliquoted and then stored at −20° C. • 1.5 Penicillin/streptomycin biantibiotics solution: 8 million units/vial penicillin plus 40 mL of ultrapure water were mixed well, 1 g/vial streptomycin plus 50 mL of ultrapure water were mixed well, the two mixtures were mixed at a volume ratio of 1:1 to obtain 100×penicillin-streptomycin biantibiotics solution (containing 100,000 units/mL penicillin and 10 mg/mL streptomycin). After filtration through a 0.22 m sterile microfiltration membrane, the solution was aliquoted at 10 mL/tube, and stored in a refrigerator at −20° C. • 1.6 Formulation of buffer solution: • PBS: […] of NaCl, […] of KCl, […] of Na2HPO4 and […] of KH2PO4 were respectively weighed and placed in a 1 L volumetric flask; ultrapure water was added to 900 mL; the pH was adjusted to 7.2 with concentrated hydrochloric acid; and the volume was finalized to 1 L. The mixture was stored at room temperature. • 2. […]

[2] = Solubility in purified water; format: physicochemical; settings: thermodynamic from solid, compound added stepwise to 2 mL until hypersaturated or 2.0 g added
Protocol: About […] of the compound (A or B or C) to be tested was weighed and placed into a 10 mL sample tube, 2 mL of purified water was added, and the mixture was mixed well. In case of complete dissolution, about […] of the compound to be tested was replenished continuously, and the mixture was mixed well until a hypersaturated state was reached or the compound to be tested was added to 2.0 g. If the compound to be tested was added to […] and is still completely dissolved, the solubility of the compound to be tested in water was recorded as >1.0 g/mL.

Row | solubility [2] | SMILES | inhibition of the elevation of the mRNA level of the inflammatory factor MCP-1 [1]
1 | > 1000 mg/mL | CC[N+]([O-])(CC)CCOC(=O)c1ccccc1OC(C)=O [compound A] | dose-dependent inhibition
2 | > 1000 mg/mL | CCN(CC)CCOC1(C)OC(=O)c2ccccc2O1 (stereo not drawn) [compound C] | dose-dependent inhibition
3 | > 1000 mg/mL | CCN(CC)CCOC(=O)c1ccccc1OC(=O)CCl [compound B] | dose-dependent inhibition
